The text below walks through data of ChEMBL document CHEMBL1158045, “Phenolic constituents of the roots of Sophora flavescens” (J Nat Prod, 2006).

What is called IC50 is the point on the concentration scale where inhibition reaches its midpoint. A low value points to inhibition by little substance.

SMILES strings stand for the structures. Converted amounts (≈) assume the structure as drawn.

The assay deals with KB. The assay is described as follows: Cytotoxicity against human KB cells. Format: functional, cell-based.
`C=C(C)C(CC=C(C)C)Cc1c(O)cc(O)c2c(=O)c(O)c(-c3ccc(O)cc3)oc12` (stereo not given) displayed an IC50 of 24.3 µg/mL (≈ 57.5 µM).
With `CC(C)=CCc1cc(-c2cc3cc4c(cc3o2)OCO4)c(O)cc1O` the figure was 8 µg/mL (≈ 23.6 µM); with `COc1cc2c(c(O)c1C(=O)/C=C/c1ccc(O)cc1O)CC(CC=C(C)C)C(C)(C)O2` (stereo not given) [CYCLOKURARIDIN], 15.1 µg/mL (≈ 34.4 µM).
With `C=C(C)C(CC=C(C)C)Cc1c(O)cc(OC)c(C(=O)C(=O)c2ccc(O)cc2O)c1O` (stereo not given) [SOPHORADIONE] the figure was 29.4 µg/mL (≈ 66.7 µM).
Regarding `CC(C)=CCOc1cc(O)c2c(c1CC=C(C)C)OC(c1ccc(O)cc1O)CC2=O` (stereo not given) [SOPHORAFLAVANONE L], the IC50 was found to be 7.1 µg/mL (≈ 16.7 µM). Compared with the last molecule, the IC50 is about 4.1-fold lower.
